Experimental data: paper PMC8944748, “Kojic Acid Showed Consistent Inhibitory Activity on Tyrosinase from Mushroom and in Cultured B16F10 Cells Compared with Arbutins” (Antioxidants, 2022)
Entries after “also recorded” stand apart in the source; their conditions may differ.

Legend:
[1] = tested on: monophenolase of mushroom tyrosinase (MTYR); experiment: MTYR monophenolase activity assay (L-tyrosine as substrate, dopachrome at 475 nm); type: biochemical
Experimental: L-tyrosine and L-DOPA were used as the substrates to test the monophenolase activity and diphenolase activity, respectively. Freshly prepared tyrosinase and substrate solutions were used in this experiment. For air-saturated solutions, a temperature of 25 °C and pH of 6.8 was maintained throughout the study. All assays were performed in triplicate. In flat-bottom 96-well plates, the reaction media was 200 μL. […] Once the substrate was added in reaction system, the formation of dopachrome was immediately measured at 475 nm for 30 min at 1 min intervals. The concentrations of kojic acid were 7.5, 15, 30, 60, and 120 μM. The concentrations of α-arbutin were 480, 960, 2000, 4000, and 8000 μM. The concentrations of β-arbutin were 240, 480, 960, 2000, and 4000 μM. […] These concentrations were used to determine the progress curves and inhibition rates of monophenolase. […] In the formula, 'negative control' is the treatment without sample; 'blank control' is the treatment without sample and substrate; 'sample' is the treatment including all solutions; and 'sample control' is the treatment without substrate but including sample. If the inhibition rate was negative, it meant the tyrosinase was activated. The activation rate was the absolute value of inhibition rate.

[2] = tested on: diphenolase of mushroom tyrosinase (MTYR); experiment: MTYR diphenolase activity assay (L-DOPA as substrate, dopachrome at 475 nm); type: biochemical; details: L-DOPA
Experimental: L-tyrosine and L-DOPA were used as the substrates to test the monophenolase activity and diphenolase activity, respectively. Freshly prepared tyrosinase and substrate solutions were used in this experiment. For air-saturated solutions, a temperature of 25 °C and pH of 6.8 was maintained throughout the study. All assays were performed in triplicate. […] Additionally, three concentrations of every compound were selected to present progress curves. Once the substrate was added in reaction system, the formation of dopachrome was immediately measured at 475 nm for 25 min at 1 min intervals.

[3] = molecular target: monophenolase of mushroom tyrosinase (MTYR); experiment: Kinetic analysis of MTYR monophenolase (Lineweaver-Burk plot); type: biochemical
Experimental: (§1) The concentration of enzyme was fixed, while the concentration of substrate was changed. […] When determining inhibition type of monophenolase, the concentration of kojic acid were 7.5, 30, and 120 µM. […] The concentrations of deoxyarbutin were 3.75, 15, and 60 µM. […] The concentrations of deoxyarbutin were 7.5, 30, and 120 µM. Once the substrate was added to the reaction system, the formation of dopachrome was immediately detected at 475 nm once every minute for 30 min. Steady state rate (V0) was defined as the slope of the linear range of progress curves, also called the dopachrome accumulation curve. The Km (substrate concentration that yield a half-maximal velocity) and Vmax (maximum velocity) of tyrosinase were determined by Michaelis–Menten equation. Lineweaver–Burk plot was used to display the data.

[4] = molecular target: diphenolase of mushroom tyrosinase (MTYR); experiment: Kinetic analysis of MTYR diphenolase (Lineweaver-Burk plot); type: biochemical
Experimental: as §1

[5] = tested on: T1, B16F10 cellular tyrosinase (BTYR); experiment: B16F10 cellular tyrosinase (BTYR) activity, L-DOPA oxidase activity of lysate after treatment of cells; type: cell-based, mouse; details: 48 h, percentage of control 2
T1 construct: The supernatant was used as the BTYR solution; endogenous in cells; host or cells: B16F10 mouse melanoma cells, α-MSH stimulated
Experimental: (§2) Measurement of B16F10 cellular tyrosinase (BTYR) activity, melanin content, and cell viability were the same as our previous study. Blank group (control 1) was the treatment containing cells and medium. Control group (control 2) was the treatment containing cells, medium, and α-MSH. Compound groups were the treatments containing cells, medium, α-MSH, and related compounds. Experiments were performed at least in triplicate.
(§3) B16F10 mouse malignant melanoma cell line from Stem Cell Bank (Chinese Academy of Sciences, Shanghai, China) were cultured in DMEM supplemented with 10% fetal bovine serum (FBS; Gibco, Grand Island, NV, USA) and antibiotics (100 U/mL penicillin and 100μg/mL streptomycin) in a humidified atmosphere of 5% CO2 at 37 °C. B16F10 cells at the exponential phase were adjusted for cell density and used in the following assay.
The BTYR activity was measured as the L-DOPA oxidase activity. B16F10 cells were seeded and incubated for 24 h in 24-well cell culture plates. Then, they were treated with 50 µL of 1 µM α-MSH and different molarities of compounds for another 48 h. After being washed twice with cold D-PBS and lysed with a lysis buffer (P0013J) containing 1% Triton X-100 for 30 min at −20 °C, the lysates were centrifuged at 12,000 rpm for 10 min at 4 °C. The supernatant was used as the BTYR solution. The reaction mixture, containing 50 μL of cell lysate supernatant and 50 μL of 5 mM L-DOPA, was incubated at 37 °C for 1 h and the level of dopachrome formation was measured spectrophotometrically at 475 nm. Lysis buffer was used as the control. The BTYR activity was calculated as a percentage of the control.

[6] = tested on: B16F10 cells; experiment: Cellular melanin content of B16F10 cells stimulated by α-MSH; type: cell-based, mouse; details: 48 h, percentage of control 2
Experimental: as §2, §3
Briefly, B16F10 cells were treated with compounds as in Section 2.4.2. After being washed with PBS and dissolved in 1 M NaOH containing 10% DMSO for 1 h at 80 °C, the cell lysates were centrifuged at 12,000 rpm for 10 min. 150 μL of supernatant was transferred to 96-well plates and the absorbance was measured at 405 nm. The melanin content is expressed as a percentage of the control.

[7] = Cell viability of B16F10 cells, CCK-8 assay; type: cell-based, mouse; details: mouse, B16F10 melanoma cells, percentage of the control
Experimental: Blank group (control 1) was the treatment containing cells and medium. […] Compound groups were the treatments containing cells, medium, α-MSH, and related compounds. Experiments were performed at least in triplicate. […] B16F10 cells at the exponential phase were adjusted for cell density and used in the following assay. […] Cells were seeded into 96-well plates at a density of 1 × 10^4 cells/well and incubated for 24 h. Then, the cells were treated with different concentrations of compounds for 48 h. After rinsing once with D-PBS, 100 uL DMEM containing 10% CCK-8 was added and incubated for another 1 h. The absorbance values of the solution at 450 nm were measured. The cell viability is expressed as a percentage of the control.

[8] = tested on: diphenolase activity of MTYR; design: method as in PMID 7765966; details: α-arbutin below 10 mM; cited from earlier work
[9] = tested on: tyrosinase diphenolase from B16 mouse melanoma cells; design: method as in PMID 7765966; details: cited from earlier work
[10] = molecular target: MTYR monophenolase; design: method as in PMID 28493937; details: read-out: IC50 on the inhibitory activity of MTYR monophenolase; cited from earlier work
[11] = tested on: three-dimensional human skin model; design: method as in PMID 15056856; details: cited from earlier work
[12] = change with increasing compound molarity

Structure (SMILES): OC[C@H]1O[C@H](Oc2ccc(O)cc2)[C@H](O)[C@@H](O)[C@@H]1O [α-arbutin]
- lag time for monophenolase activity ([1]; L-tyrosine, progress curves): extended in a molarity-dependent manner
- IC50 ([1]; substrate L-tyrosine 2 mM, MTYR 300 U/mL, 25 °C, pH 6.8): 6.5 ± 0.137 mM
- effect on diphenolase activity of MTYR ([2]; 30-8000 µM): prompted tyrosinase activity in a dose-dependent manner
- lag time on diphenolase activity ([2]; progress curves): no lag time
- Kinetic analysis on monophenolase Inhibition type ([3]; Lineweaver-Burk plot): competitive inhibitor
- Kinetic analysis on monophenolase Km [3, 12]: increased
- Kinetic analysis on monophenolase Vmax [3, 12]: remained constant
- Kinetic analysis on diphenolase Inhibition type ([4]; Lineweaver-Burk plot): uncompetitive activator
- Kinetic analysis on diphenolase Km [4, 12]: increased
- Kinetic analysis on diphenolase Vmax [4, 12]: increased
- tyrosinase activity of B16F10 cells stimulated by α-MSH ([5]; 43.8 µM): 91 ± 4%
- tyrosinase activity of B16F10 cells stimulated by α-MSH ([5]; 87.5 µM): 88 ± 4%
- tyrosinase activity of B16F10 cells stimulated by α-MSH ([5]; 175 µM): 90 ± 5%
- tyrosinase activity of B16F10 cells stimulated by α-MSH ([5]; 350 µM): 93 ± 5%
- tyrosinase activity of B16F10 cells stimulated by α-MSH ([5]; 700 µM): 86 ± 5%
- melanin content of B16F10 cells stimulated by α-MSH ([6]; 43.8 µM): 95 ± 11%
- melanin content of B16F10 cells stimulated by α-MSH ([6]; 87.5 µM): 91 ± 5%
- melanin content of B16F10 cells stimulated by α-MSH ([6]; 175 µM): 92 ± 3%
- melanin content of B16F10 cells stimulated by α-MSH ([6]; 350 µM): 87 ± 5%
- melanin content of B16F10 cells stimulated by α-MSH ([6]; 700 µM): 81 ± 3%
- viability at 48 h, 43.8 µM ([7]; 43.8 µM): 108 ± 5%
- viability at 48 h, 87.5 µM ([7]; 87.5 µM): 113 ± 7%
- viability at 48 h, 175 µM ([7]; 175 µM): 118 ± 8%
- viability at 48 h, 350 µM ([7]; 350 µM): 127 ± 10%
- viability at 48 h, 700 µM ([7]; 700 µM): 145 ± 14%
- effect on diphenolase activity of MTYR [8]: did not inhibit; also recorded: does not inhibit
- potency relative to β-arbutin as inhibitor of tyrosinase from B16 mouse melanoma [9]: 10 times
- IC50 [10]: 8 mM
- inhibition of melanin synthesis [11]: 60%
